From patent EP0799174B1, “BIOCIDAL ALCOHOLS, THEIR PRODUCTION AND THEIR USE” (SCHÜLKE & MAYR GMBH, priority 1994, dated 1996)

What was measured:
[1] = tested on: Candida albicans ATCC 10231; assay: MIC values, water-soluble (inhibition titre, dilution series in CSL); assay type: cell-based
Protocol: (§1) Standard formulation: • Rewopal MPG 40 25.0 g • aromatic alcohol 10 mmol • dem.* water to 100 g • lactic acid for adjusting the pH value to 7.0 q.s.
(§2) In sterile test tubes, 5 ml each of the dilutions of the disinfectant in WSH (water of standardized hardness) are mixed with 5 ml double-concentrated casein peptone soybean flour peptone solution (CSL) or CSL and deactivating substances.
(§3) To determine the bacteriostatic action on Staphylococcus aureus and Proteus mirabilis the tubes are inoculated by adding 0.1 ml of a CSL culture diluted 1:10 with CSL and incubated for 24 h at 37°C.
(§4) To test the fungistatic action, 0.1 ml of an undiluted CSL culture of Candida albicans which has been incubated at 37°C for 72 h is used in each case. Evaluation takes place after 72 h at 37°C.
(§5) The highest dilution of the preparation in CSL or CSL and deactivating substances that still suppresses growth of the test germs after […] incubation serves as the measure of the multiplication-inhibiting action (inhibition titre).
(§6) In the case of the disinhibition tests, the culture media are to be adjusted to a pH value of 7.0 ± 0.2 according to the state of the disinfectant.
(§7) Standard formulation: • aromatic alcohol 5.0 % • Brij 58 5.0 % • 1,3-butanediol to 100 • Test germs: see above • Test method: see above

[2] = tested on: Staphylococcus aureus ATCC 6538; assay: as above; assay type: cell-based
Protocol: as §1, §2, §3, §4, §5, §6, §7

[3] = tested on: Proteus vulgaris NCTC 4635; assay: as above; assay type: cell-based
[4] = tested on: Penicillium funiculosum ATCC 36839; assay: as above; assay type: cell-based
[5] = tested on: Aspergillus niger ATCC 6275; assay: as above; assay type: cell-based
[6] = tested on: Microsporon gypseum; assay: Foot spray: minimum inhibition concentration; assay type: cell-based; conditions: foot spray formula: 2-propanol 40.0%, aromatic alcohol 0.2 %, allantoin 0.5 %, dem. water to 100
Source text: (§8) Formula: • 2-propanol 40.0% • aromatic alcohol 0.2 % • allantoin 0.5 % • dem. water to 100 Test germs: special skin fungi such as Trichophyton rubrum, Trichophyton mentagrophytes (ATCC 9533), Microsporon gypseum Test method: Determination of the minimum inhibition concentration (method see under 1.) Data in %

[7] = tested on: Trichophyton mentagrophytes (ATCC 9533); assay: Foot spray: minimum inhibition concentration; assay type: cell-based; conditions: foot spray formula: 2-propanol 40.0%, aromatic alcohol 0.2 %, allantoin 0.5 %, dem. water to 100
Source text: as §8

[8] = tested on: Trichophyton rubrum; assay: Foot spray: minimum inhibition concentration; assay type: cell-based; conditions: foot spray formula: 2-propanol 40.0%, aromatic alcohol 0.2 %, allantoin 0.5 %, dem. water to 100
Source text: as §8

[9] = tested on: Microsporon gypseum; assay: Foot spray: agar diffusion test; assay type: cell-based; conditions: foot spray formula with aromatic alcohol 0.2 %
Source text: as §8, with “in % Test germs: special skin fungi such as Trichophyton rubrum, Trichophyton mentagrophytes, Microsporon gypseum Test method: Agar diffusion test Data as millimetres inhibition zone” for “in %”

[10] = tested on: Trichophyton mentagrophytes; assay: Foot spray: agar diffusion test; assay type: cell-based; conditions: foot spray formula with aromatic alcohol 0.2 %
Source text: as §8, with “in % Test germs: special skin fungi such as Trichophyton rubrum, Trichophyton mentagrophytes, Microsporon gypseum Test method: Agar diffusion test Data as millimetres inhibition zone” for “in %”

[11] = tested on: Trichophyton rubrum; assay: Foot spray: agar diffusion test; assay type: cell-based; conditions: foot spray formula with aromatic alcohol 0.2 %
Source text: as §8, with “in % Test germs: special skin fungi such as Trichophyton rubrum, Trichophyton mentagrophytes, Microsporon gypseum Test method: Agar diffusion test Data as millimetres inhibition zone” for “in %”

[12] = tested on: Microsporon luteus ATCC 15442; assay: Skin antiseptic a): test on skin of subjects, contamination after 1 h, ring method; assay type: in vivo; conditions: aromatic alcohol 1.0% in 1-propanol 30.0%, 2-propanol 45.0%, 0.2 ml on 10cm^2 skin, germs removed after 15 minutes, average of all 10 subjects
Protocol: • 1-propanol 30.0% • 2-propanol 45.0% • aromatic alcohol 1.0% • dem. water to 100 Test germ: Microsporon luteus ATCC 15442 Test method: Apply 0.2 ml preparation to 10cm^2 skin, allow to dry, cover with TEGADERM® film and leave to work for 1 h, contaminate with 0.1 ml germ suspension, remove after 15 minutes with ring method Reference: Control against Neo-Kodan® Number of subjects: 10 subjects

[13] = Skin antiseptic a): suspension test according to DGHM; assay type: cell-based; conditions: formulation with 1.0% aromatic alcohol in 1-propanol 30.0%, 2-propanol 45.0%; concentration and time
[14] = tested on: Mycobacterium terrae ATCC 15755; assay: Germ carrier experiment with standard cotton; assay type: cell-based; parameters: key: E: individual colonies; M: several colonies; +: weak growth; ++: moderate growth; +++: heavy growth; ++++: very heavy growth; ∞: lawn growth; conditions: Rewopal MPG 40 25.0%, aromatic alcohol 2.0 %, dem. water to 100
Protocol: • Rewopal MPG 40 25.0% • aromatic alcohol 2.0 % • dem. water to 100
The bacteria are elutriated with 5 ml CSL from a 24 h-old (37°C) culture onto CSA plates measuring approx. 9 cm in diameter, the suspension being diluted with CSL if necessary. The number of CFU/ml is to be determined using surface culture. It should be > 10^9/ml.
The sterilized and dried germ carriers are introduced into the bacterial suspension and left in it for 15 minutes, during which they are turned over twice.
A number (4) of contaminated, thoroughly impregnated germ carriers, corresponding to the proposed removal times - 15, 30, 60 and 120 minutes - is placed in a small dish and 10 ml of the disinfectant solution to be tested in WSH are poured over them. Air bubbles are to be removed by repeated turning of the germ carriers.
After the corresponding action times, the germ carriers are to be removed from the disinfectant solution, and after rinsing twice in each case for 1 min in 10 ml ML solution (see Appendix) to which the deactivating substances were optionally added, the germ carriers are placed onto the surface of a Löwenstein-Jensen nutrient medium with tweezers and moved backwards and forwards 3 to 4 times using light pressure. After inoculating the nutrient medium surface the small cloth is to remain lying directly above the condensed water level of the nutrient medium.
Germ carriers pre-treated in the same way, but kept in WSH for 120 minutes instead of in disinfectant solution are to be inoculated as a control. The inoculated tubes are incubated at 37°C for 3 weeks.

[15] = standard formulation: Rewopal MPG 40 25.0 g, aromatic alcohol 10 mmol, dem. water to 100 g, pH 7.0
[16] = standard formulation: aromatic alcohol 5.0 %, Brij 58 5.0 %, 1,3-butanediol to 100

CCCCCC(=Cc1ccccc1)CO [Alcohol 8, α-amyl cinnamyl alcohol]
MIC (minimum inhibiting concentration) C. albicans [1, 15]: 313 μmol/100 ml test solution | MIC (minimum inhibiting concentration) S. aureus [2, 15]: 39 μmol/100 ml test solution | MIC (minimum inhibiting concentration) P. vulgaris [3, 15]: 1,250 μmol/100 ml test solution | MIC (minimum inhibiting concentration) P. funi. [4, 15]: 313 μmol/100 ml test solution | MIC (minimum inhibiting concentration) A. niger [5, 15]: 156 μmol/100 ml test solution | minimum inhibition concentration, M. gypseum [6]: 1.56% | minimum inhibition concentration, T. mentagrophytes [7]: 1.56% | minimum inhibition concentration, T. rubrum [8]: 1.56% | inhibition zone, M. gypseum ([9]; use concentration 50%): 10 mm | inhibition zone, M. gypseum ([9]; use concentration 100%): 19 mm | inhibition zone, T. mentagrophytes ([10]; use concentration 50%): 14 mm | inhibition zone, T. mentagrophytes ([10]; use concentration 100%): 22 mm | inhibition zone, T. rubrum ([11]; use concentration 50%): 14 mm | inhibition zone, T. rubrum ([11]; use concentration 100%): 23 mm | Average value of RF (reduction factors) [12]: 1.9 log stages | values in the suspension test according to DGHM [13]: 50%, 30 seconds | growth of M. terrae after action time 15' [14]: +++ | growth of M. terrae after action time 30' [14]: ++ | growth of M. terrae after action time 60' [14]: + | growth of M. terrae after action time 120' [14]: E

OCCCc1ccccc1 [Alcohol 1, 3-phenyl propanol, reference compound]
MIC (minimum inhibiting concentration) C. albicans [1, 15]: 625 μmol/100 ml test solution | MIC (minimum inhibiting concentration) C. albicans [1, 16]: 625 µmol/100 ml test solution | MIC (minimum inhibiting concentration) S. aureus [2, 15]: 1,250 μmol/100 ml test solution | MIC (minimum inhibiting concentration) S. aureus [2, 16]: 1,250 µmol/100 ml test solution | MIC (minimum inhibiting concentration) P. vulgaris [3, 15]: 625 μmol/100 ml test solution | MIC (minimum inhibiting concentration) P. vulgaris [3, 16]: 625 µmol/100 ml test solution | MIC (minimum inhibiting concentration) P. funi. [4, 15]: 313 μmol/100 ml test solution | MIC (minimum inhibiting concentration) P. funi. [4, 16]: 313 µmol/100 ml test solution | MIC (minimum inhibiting concentration) A. niger [5, 15]: 625 μmol/100 ml test solution | MIC (minimum inhibiting concentration) A. niger [5, 16]: 625 µmol/100 ml test solution | minimum inhibition concentration, M. gypseum [6]: 6.25% | minimum inhibition concentration, T. mentagrophytes [7]: 6.25% | minimum inhibition concentration, T. rubrum [8]: 6.25% | inhibition zone, M. gypseum ([9]; use concentration 100%): 0 mm | inhibition zone, T. mentagrophytes ([10]; use concentration 100%): 0 mm | inhibition zone, T. rubrum ([11]; use concentration 100%): 0 mm | Average value of RF (reduction factors) [12]: 0 log stages | growth of M. terrae after action time 15' [14]: ++++ | growth of M. terrae after action time 30' [14]: ++++ | growth of M. terrae after action time 60' [14]: +++ | growth of M. terrae after action time 120' [14]: +++
